Where two headings read alike, the source gives them in different places.
Tests used:
[1] = Pharmacokinetics after intravenous and oral administration in rats; type: in vivo; details: for F: oral bioavailability, oral dose not given; for AUC(0-t) / half-life / Vd: rat, plasma; for clearance (CL) after iv dosing / AUC(0-t) / half-life / Vd: iv dosing; for Vd: read-out: Vss
Protocol: The compounds disclosed herein are assessed in pharmacokinetic studies in mice, rats, dogs or monkeys. The compounds are administered as a water solution, 2% HPMC+1% TWEEN®80 in water solution, 5% DMSO+5% solutol in saline, 4% MC suspension or capsule. For the intravenous administration, the animals are generally given at 1 or 2 mg/kg dose. For the oral (p.o.) dosing, mice and rats are generally given 5 or 10 mg/kg dose, and dogs and monkeys are generally given 10 mg/kg dose. The blood samples (0.3 mL) are drawn at 0.25, 0.5, 1.0, 2.0, 3.0, 4.0, 6.0, 8.0, 12 and 24 h time points or 0.083, 0.25, 0.5, 1.0, 2.0, 4.0, 6.0, 8.0 and 24 h time points and centrifuged at 3,000 or 4000 rpm for 2 to 10 min. The plasma solutions are collected, stored at −20° C. or −70° C. until analyzed by LC/MS/MS as described above.

[2] = target: T1, KDR (h) (Homo sapiens, UniProt P35968); experiment: KDR (h) (VEGF-R2 (h)) kinase assay (IC50); type: biochemical; details: cells marked (IC50) in the Kd table
T1 construct: host or cells: E. coli BL21-derived host (T7 phage) or HEK-293
Protocol: (§1) The above assay procedure can be used to determine the IC50 for inhibition and/or the inhibition constant, Ki. The IC50 is defined as the concentration of compound required to reduce the enzyme activity by 50% under the condition of the assay. The IC50 value is estimated by preparing a 10 point curve using a ½ log dilution series (for example, a typical curve may be prepared using the following compound concentrations; 100 μM, 30 μM, 10 μM, 3 μM, 1 μM, 0.3 μM, 0.1 μM, 0.03 μM, 0.01 μM and 0 μM).
KDR (h) (VEGF-R2 (h)) Assay
(§2) (specific activity approx. 500 cpm/pmol, concentration as required).
(§3) The kinase assays described herein can be performed at Millipore UK Ltd, Dundee Technology Park, Dundee DD2 1SW, UK c-Met (h) Assay.

[3] = target: T2, c-Met (h) (Homo sapiens, UniProt P08581); experiment: c-Met (h) kinase assay (IC50); type: biochemical; details: cells marked (IC50) in the Kd table
T2 construct: host or cells: E. coli BL21-derived host (T7 phage) or HEK-293
Protocol: as §1, §2, §3

T1 sequence (P35968 20-1356): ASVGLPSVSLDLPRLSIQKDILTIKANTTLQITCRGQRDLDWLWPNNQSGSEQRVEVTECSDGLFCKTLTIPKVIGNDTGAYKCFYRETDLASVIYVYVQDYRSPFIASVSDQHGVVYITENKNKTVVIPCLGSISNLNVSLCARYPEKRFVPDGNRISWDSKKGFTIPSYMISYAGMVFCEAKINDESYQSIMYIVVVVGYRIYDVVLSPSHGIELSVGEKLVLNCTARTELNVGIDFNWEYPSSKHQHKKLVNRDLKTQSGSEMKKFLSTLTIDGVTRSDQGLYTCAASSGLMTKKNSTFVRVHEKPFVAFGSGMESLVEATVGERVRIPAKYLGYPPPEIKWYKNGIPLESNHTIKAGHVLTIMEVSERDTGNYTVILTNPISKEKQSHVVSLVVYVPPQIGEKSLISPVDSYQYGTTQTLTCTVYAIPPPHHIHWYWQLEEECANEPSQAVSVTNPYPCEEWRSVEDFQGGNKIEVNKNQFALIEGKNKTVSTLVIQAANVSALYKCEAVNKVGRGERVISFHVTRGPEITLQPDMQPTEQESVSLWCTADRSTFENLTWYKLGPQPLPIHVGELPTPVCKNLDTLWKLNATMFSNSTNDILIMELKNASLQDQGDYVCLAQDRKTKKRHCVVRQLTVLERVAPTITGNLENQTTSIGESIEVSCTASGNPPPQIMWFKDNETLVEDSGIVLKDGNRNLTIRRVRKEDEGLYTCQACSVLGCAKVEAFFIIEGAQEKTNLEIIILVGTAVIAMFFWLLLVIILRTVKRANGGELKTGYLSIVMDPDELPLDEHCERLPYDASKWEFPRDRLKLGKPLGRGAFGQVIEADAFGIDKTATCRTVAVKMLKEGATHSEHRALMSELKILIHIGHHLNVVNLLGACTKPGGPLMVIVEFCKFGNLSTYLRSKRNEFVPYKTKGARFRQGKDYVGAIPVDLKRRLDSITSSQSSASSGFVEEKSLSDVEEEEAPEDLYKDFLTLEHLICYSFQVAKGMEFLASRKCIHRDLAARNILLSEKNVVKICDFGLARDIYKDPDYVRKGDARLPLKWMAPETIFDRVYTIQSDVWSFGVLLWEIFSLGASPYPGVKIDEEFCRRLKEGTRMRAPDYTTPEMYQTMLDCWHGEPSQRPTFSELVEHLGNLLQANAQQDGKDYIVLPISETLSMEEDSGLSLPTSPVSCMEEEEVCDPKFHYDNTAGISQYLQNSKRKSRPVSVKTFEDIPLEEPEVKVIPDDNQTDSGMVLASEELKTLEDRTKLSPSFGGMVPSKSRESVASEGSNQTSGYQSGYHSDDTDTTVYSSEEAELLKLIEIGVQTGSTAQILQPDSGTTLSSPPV
T2 sequence (P08581 25-1390): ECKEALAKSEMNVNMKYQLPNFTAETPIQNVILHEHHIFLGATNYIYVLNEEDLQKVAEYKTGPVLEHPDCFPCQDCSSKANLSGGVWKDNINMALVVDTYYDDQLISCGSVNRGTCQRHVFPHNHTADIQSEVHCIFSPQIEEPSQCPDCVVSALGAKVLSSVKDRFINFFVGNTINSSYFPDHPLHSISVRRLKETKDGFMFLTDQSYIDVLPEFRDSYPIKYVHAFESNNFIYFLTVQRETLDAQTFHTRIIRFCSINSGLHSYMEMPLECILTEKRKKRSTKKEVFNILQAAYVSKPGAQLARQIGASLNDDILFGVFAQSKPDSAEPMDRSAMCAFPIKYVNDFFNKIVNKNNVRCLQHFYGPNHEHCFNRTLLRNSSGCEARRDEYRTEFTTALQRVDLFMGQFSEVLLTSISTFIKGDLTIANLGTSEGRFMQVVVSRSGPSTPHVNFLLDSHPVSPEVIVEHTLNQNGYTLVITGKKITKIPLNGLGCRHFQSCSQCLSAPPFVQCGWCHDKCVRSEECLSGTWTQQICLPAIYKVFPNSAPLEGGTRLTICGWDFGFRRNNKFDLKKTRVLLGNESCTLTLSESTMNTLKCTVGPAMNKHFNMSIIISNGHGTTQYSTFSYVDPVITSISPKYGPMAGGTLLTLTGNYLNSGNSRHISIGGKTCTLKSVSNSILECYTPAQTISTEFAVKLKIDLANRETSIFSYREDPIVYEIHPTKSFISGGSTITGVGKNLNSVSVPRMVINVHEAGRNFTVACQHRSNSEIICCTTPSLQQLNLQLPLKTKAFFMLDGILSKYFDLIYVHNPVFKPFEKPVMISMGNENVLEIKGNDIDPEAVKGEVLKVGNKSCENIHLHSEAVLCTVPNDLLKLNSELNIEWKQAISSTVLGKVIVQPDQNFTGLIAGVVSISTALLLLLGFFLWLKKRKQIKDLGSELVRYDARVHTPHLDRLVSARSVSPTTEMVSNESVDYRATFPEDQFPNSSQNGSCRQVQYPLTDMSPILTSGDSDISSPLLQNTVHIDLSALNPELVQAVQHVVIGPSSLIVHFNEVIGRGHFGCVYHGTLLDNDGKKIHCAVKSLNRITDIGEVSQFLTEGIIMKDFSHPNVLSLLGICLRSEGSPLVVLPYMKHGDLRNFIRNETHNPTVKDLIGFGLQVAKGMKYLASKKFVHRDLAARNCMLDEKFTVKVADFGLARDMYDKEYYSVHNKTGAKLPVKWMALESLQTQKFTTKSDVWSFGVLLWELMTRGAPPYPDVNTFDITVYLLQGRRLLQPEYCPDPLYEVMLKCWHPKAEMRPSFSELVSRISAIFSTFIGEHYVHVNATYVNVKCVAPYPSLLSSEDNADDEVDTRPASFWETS

Row | clearance (CL) after iv dosing ([1]; 1 mg/kg) [mL/min/kg] | F ([1]; iv dose 1 mg/kg) [%] | AUC(0-t) ([1]; 1 mg/kg) [ng·h/mL] | half-life ([1]; 1 mg/kg) [min] | Vd ([1]; 1 mg/kg) [L/kg] | IC50 [2] [nM] | IC50 [3] [nM] | clearance (CL) after iv dosing ([1]; 2 mg/kg) [mL/min/kg] | F ([1]; iv dose 2 mg/kg) [%] | AUC(0-t) ([1]; 2 mg/kg) [ng·h/mL] | half-life ([1]; 2 mg/kg) [min] | Vd ([1]; 2 mg/kg) [L/kg] | Compound
1 | 23.7 | 31.2 | 706 | 67.8 | 0.68 | > 3000 | 611 | – | – | – | – | – | Cc1c(C(=O)Nc2ccc(Oc3ccnc(N)c3)cc2)c(=O)n(-c2ccccc2)n1C [Ex. 1, N-(4-((2-aminopyridin-4-yl)oxy)phenyl)-1,5-dimethyl-3-oxo-2-phenyl-2,3-dihydro-1H-pyrazole-4-carboxamide]
2 | – | – | – | – | – | > 3000 | 84 | 13.3 | 78.1 | 2510 | 43.2 | 0.56 | Cc1c(C(=O)Nc2ccc(Oc3ccnc(N)c3)c(F)c2)c(=O)n(-c2ccccc2)n1C [Ex. 22, N-(4-((2-aminopyridin-4-yl)oxy)-3-fluorophenyl)-1,5-dimethyl-3-oxo-2-phenyl-2,3-dihydro-1H-pyrazole-4-carboxamide]

Source: patent publication US8969388B1, “Substituted pyrazolone compounds and methods of use” (Calitor Sciences, LLC, priority 2012, dated 2015)
